According to paper doi:10.1101/2023.10.20.563248v1 (biorxiv, 2023):

What was measured:
Details in all cases: 1 µM; inhibitor
LYN = LYN (Homo sapiens, UniProt P07948)
AurC = AurC (Homo sapiens, UniProt Q9UQB9)
AKT2 = AKT2 (Homo sapiens, UniProt P31751)
ACVRL1 = ACVRL1 (Homo sapiens, UniProt P37023)
BMPR1A = BMPR1A (Homo sapiens, UniProt P36894)
PDK1 = PDK1 (Homo sapiens, UniProt O15530)
CK2a1 = CK2a1 (Homo sapiens, UniProt P68400)
MARK4 = MARK4 (Homo sapiens, UniProt Q96L34)
LRRK2 = LRRK2 (Homo sapiens, UniProt Q5S007)
LIMK2 = LIMK2 (Homo sapiens, UniProt P53671)
CSF1R = CSF1R (Homo sapiens, UniProt P07333)
DYRK2 = DYRK2 (Homo sapiens, UniProt Q92630)
MAP3K11 = MAP3K11 (Homo sapiens, UniProt Q16584)
BLK = BLK (Homo sapiens, UniProt P51451)
HRI = HRI (Homo sapiens, UniProt Q9BQI3)
SRMS = SRMS (Homo sapiens, UniProt Q9H3Y6)
CDK8 = CDK8 (Homo sapiens, UniProt P49336)
CLK1 = CLK1 (Homo sapiens, UniProt P49759)
VEGFR2 = VEGFR2 (Homo sapiens, UniProt P35968)
EPHA4 = EPHA4 (Homo sapiens, UniProt P54764)
CDK13 = CDK13 (Homo sapiens, UniProt Q14004)
RPS6KA5 = RPS6KA5 (Homo sapiens, UniProt O75582)
RPS6KA5, sequence (O75582 whole entry): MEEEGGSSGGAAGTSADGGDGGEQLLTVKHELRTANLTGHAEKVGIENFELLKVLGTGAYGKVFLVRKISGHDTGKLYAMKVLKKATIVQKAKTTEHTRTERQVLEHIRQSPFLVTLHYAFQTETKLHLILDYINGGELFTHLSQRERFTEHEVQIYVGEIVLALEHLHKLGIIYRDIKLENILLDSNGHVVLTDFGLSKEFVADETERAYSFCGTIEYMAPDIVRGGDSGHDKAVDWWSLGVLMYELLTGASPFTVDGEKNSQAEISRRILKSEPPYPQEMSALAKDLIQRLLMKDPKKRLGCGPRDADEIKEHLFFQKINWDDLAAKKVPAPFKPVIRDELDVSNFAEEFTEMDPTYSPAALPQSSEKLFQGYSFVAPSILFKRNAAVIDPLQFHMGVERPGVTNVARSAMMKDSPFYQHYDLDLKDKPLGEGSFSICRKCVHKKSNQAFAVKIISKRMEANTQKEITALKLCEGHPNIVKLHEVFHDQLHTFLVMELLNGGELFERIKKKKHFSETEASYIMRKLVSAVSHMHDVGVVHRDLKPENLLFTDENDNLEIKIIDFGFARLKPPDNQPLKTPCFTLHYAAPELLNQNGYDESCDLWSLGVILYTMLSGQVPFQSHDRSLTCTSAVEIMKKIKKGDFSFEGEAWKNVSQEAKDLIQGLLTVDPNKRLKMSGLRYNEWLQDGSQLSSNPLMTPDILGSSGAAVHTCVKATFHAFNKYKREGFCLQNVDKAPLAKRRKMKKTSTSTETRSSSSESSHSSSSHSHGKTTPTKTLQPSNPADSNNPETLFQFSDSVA

p38a = p38a (Homo sapiens, UniProt Q16539)
p38a, sequence (Q16539 whole entry): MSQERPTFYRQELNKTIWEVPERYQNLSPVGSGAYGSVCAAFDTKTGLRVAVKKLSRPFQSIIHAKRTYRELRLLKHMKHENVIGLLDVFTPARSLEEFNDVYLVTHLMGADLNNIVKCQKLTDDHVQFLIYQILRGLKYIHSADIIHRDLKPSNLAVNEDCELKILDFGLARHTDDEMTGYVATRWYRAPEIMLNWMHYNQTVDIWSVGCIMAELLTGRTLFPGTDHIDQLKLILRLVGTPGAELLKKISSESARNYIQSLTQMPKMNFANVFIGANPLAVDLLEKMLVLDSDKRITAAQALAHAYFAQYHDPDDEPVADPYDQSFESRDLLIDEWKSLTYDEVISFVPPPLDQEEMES

BRSK2 = BRSK2 (Homo sapiens, UniProt Q8IWQ3)
BRSK2, sequence (Q8IWQ3 whole entry): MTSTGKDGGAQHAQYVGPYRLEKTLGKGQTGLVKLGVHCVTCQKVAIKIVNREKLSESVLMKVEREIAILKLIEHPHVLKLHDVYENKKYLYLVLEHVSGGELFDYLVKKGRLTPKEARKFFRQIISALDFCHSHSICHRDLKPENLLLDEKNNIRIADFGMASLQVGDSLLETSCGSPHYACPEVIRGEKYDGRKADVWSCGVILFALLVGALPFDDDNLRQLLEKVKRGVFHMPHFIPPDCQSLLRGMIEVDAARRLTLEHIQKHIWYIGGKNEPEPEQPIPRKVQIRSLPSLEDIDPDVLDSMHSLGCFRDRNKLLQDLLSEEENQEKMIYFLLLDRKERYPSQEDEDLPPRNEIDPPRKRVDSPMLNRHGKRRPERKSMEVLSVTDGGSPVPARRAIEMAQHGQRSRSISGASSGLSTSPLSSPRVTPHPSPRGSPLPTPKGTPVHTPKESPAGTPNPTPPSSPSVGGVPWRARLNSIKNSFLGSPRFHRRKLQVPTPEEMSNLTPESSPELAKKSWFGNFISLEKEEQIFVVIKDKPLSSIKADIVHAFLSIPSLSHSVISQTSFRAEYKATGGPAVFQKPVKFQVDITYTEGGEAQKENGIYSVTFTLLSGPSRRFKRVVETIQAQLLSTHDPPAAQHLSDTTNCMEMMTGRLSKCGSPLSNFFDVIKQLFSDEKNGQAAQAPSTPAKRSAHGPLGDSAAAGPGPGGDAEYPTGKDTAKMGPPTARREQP

CDK11B = CDK11B (Homo sapiens, UniProt P21127)
CDK11B, sequence (P21127 whole entry): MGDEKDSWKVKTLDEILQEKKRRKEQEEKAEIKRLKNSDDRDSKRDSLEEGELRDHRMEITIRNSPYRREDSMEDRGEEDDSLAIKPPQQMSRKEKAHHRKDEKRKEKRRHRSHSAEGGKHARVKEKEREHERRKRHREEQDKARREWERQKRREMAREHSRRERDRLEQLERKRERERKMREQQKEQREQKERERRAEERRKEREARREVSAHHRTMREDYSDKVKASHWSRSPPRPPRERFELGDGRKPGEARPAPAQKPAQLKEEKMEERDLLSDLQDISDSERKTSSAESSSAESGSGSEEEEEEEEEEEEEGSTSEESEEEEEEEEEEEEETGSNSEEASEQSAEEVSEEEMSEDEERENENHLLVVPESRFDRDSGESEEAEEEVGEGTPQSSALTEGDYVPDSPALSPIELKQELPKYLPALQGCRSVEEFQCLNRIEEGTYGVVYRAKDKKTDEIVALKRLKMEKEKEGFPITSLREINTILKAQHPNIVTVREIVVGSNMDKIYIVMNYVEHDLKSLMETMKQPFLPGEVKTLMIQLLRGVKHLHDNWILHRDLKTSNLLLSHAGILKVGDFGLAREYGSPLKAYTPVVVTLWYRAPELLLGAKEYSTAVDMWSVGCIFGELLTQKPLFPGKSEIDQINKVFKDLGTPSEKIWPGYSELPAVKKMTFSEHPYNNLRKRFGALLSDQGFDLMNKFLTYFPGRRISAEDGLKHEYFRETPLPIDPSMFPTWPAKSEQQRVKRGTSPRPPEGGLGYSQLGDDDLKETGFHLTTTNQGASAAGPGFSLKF

CDK18 = CDK18 (Homo sapiens, UniProt Q07002)
CDK18, sequence (Q07002 whole entry): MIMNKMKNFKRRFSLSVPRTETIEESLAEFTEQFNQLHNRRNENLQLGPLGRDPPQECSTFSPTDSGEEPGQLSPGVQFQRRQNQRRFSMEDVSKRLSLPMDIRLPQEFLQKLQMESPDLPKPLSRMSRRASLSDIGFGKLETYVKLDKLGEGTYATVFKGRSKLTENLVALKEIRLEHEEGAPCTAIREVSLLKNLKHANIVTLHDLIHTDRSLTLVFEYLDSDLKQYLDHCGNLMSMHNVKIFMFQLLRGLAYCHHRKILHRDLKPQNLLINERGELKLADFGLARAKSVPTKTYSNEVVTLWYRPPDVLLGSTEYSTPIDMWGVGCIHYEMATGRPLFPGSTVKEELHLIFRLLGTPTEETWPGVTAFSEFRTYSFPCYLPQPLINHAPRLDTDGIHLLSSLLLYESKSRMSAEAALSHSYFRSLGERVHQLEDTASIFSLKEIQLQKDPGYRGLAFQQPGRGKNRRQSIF

LIMK1 = LIMK1 (Homo sapiens, UniProt P53667)
PBK = PBK (Homo sapiens, UniProt Q96KB5)
PIM2 = PIM2 (Homo sapiens, UniProt Q9P1W9)
CDK2 = CDK2 (Homo sapiens, UniProt P24941)
ERBB2 = ERBB2 (Homo sapiens, UniProt P04626)

AurC, sequence (Q9UQB9 whole entry): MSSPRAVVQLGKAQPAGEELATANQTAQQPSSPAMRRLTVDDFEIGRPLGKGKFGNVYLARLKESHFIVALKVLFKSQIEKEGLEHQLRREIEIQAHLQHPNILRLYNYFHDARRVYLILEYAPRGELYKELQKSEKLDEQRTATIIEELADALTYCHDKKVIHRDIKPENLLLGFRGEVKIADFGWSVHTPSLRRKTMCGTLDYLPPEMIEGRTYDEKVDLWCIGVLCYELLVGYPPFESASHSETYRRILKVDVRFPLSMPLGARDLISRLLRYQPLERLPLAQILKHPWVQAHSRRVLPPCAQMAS
LYN, sequence (P07948 whole entry): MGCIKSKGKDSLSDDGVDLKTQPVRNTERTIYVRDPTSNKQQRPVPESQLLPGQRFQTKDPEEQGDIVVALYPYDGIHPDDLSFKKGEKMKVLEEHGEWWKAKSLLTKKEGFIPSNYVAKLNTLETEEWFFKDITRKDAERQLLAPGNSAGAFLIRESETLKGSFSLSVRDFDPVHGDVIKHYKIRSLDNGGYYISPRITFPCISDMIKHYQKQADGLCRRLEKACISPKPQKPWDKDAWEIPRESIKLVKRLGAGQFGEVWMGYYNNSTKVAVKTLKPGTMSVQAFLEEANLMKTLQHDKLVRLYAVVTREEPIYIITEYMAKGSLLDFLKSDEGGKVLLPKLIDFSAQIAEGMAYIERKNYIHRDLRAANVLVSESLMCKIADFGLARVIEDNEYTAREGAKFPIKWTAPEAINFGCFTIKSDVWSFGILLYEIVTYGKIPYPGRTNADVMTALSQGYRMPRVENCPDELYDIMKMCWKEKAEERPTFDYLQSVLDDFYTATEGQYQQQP
AKT2, sequence (P31751 whole entry): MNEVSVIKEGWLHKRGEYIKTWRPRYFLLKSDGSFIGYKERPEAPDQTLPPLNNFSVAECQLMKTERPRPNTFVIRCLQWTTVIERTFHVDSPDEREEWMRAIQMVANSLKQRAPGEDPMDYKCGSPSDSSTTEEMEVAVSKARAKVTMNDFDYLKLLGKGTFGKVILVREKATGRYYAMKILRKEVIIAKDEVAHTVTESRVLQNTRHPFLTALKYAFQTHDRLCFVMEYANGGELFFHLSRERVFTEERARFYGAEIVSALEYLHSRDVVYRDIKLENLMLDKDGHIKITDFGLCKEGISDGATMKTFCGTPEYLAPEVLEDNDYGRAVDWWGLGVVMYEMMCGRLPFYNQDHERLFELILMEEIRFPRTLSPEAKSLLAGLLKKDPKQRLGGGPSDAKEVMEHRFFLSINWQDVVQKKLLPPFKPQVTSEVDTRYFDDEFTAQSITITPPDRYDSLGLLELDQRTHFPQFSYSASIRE
PDK1, sequence (O15530 whole entry): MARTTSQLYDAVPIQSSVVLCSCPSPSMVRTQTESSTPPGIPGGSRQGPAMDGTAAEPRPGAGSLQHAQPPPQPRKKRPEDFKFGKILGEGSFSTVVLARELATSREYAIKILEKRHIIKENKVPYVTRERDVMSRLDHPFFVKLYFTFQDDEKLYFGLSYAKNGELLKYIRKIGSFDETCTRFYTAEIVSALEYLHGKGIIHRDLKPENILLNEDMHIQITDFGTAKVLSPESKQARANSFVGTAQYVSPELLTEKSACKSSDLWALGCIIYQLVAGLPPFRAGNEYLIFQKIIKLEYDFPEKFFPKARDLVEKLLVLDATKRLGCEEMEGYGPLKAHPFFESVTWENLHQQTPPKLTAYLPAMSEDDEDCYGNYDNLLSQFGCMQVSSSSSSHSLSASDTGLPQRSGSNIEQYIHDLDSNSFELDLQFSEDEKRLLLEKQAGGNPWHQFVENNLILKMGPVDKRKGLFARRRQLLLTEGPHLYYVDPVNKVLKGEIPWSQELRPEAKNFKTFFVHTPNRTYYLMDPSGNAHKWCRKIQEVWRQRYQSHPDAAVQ

## O=C1NCCCCCNc2nc(c3ccccc3n2)Nc2cc1[nH]n2 [21c, (Z)-3^1H-2,5,11-triaza-1(4,2)-quinazolina-3(3,5)-pyrazolacycloundecaphan-4-one]
LYN
  21c Remaining activity, percent of control [%]: 139.3%
AurC
  21c Remaining activity, percent of control [%]: 90.2%
AKT2
  21c Remaining activity, percent of control [%]: 90.3%
ACVRL1
  21c Remaining activity, percent of control [%]: 91.0%
BMPR1A
  21c Remaining activity, percent of control [%]: 108.3%
PDK1
  21c Remaining activity, percent of control [%]: 99.5%
CK2a1
  21c Remaining activity, percent of control [%]: 95.5%
MARK4
  21c Remaining activity, percent of control [%]: 100.1%
LRRK2
  21c Remaining activity, percent of control [%]: 90.3%
LIMK2
  21c Remaining activity, percent of control [%]: 38.2%
CSF1R
  21c Remaining activity, percent of control [%]: 90.9%
DYRK2
  21c Remaining activity, percent of control [%]: 91.4%
MAP3K11
  21c Remaining activity, percent of control [%]: 45.8%
BLK
  21c Remaining activity, percent of control [%]: 98.6%
HRI
  21c Remaining activity, percent of control [%]: 98.2%
SRMS
  21c Remaining activity, percent of control [%]: 81.5%
CDK8
  21c Remaining activity, percent of control [%]: 88.5%
CLK1
  21c Remaining activity, percent of control [%]: 79.0%
VEGFR2
  21c Remaining activity, percent of control [%]: 90.3%
EPHA4
  21c Remaining activity, percent of control [%]: 67.5%
CDK13
  21c Remaining activity, percent of control [%]: 101.2%
RPS6KA5
  21c Remaining activity, percent of control [%]: 108.9%
p38a
  21c Remaining activity, percent of control [%]: 92.7%
BRSK2
  21c Remaining activity, percent of control [%]: 97.8%
CDK11B
  21c Remaining activity, percent of control [%]: 91.2%
CDK18
  21c Remaining activity, percent of control [%]: 96.7%
LIMK1
  21c Remaining activity, percent of control [%]: 36.6%
PBK
  21c Remaining activity, percent of control [%]: 98.8%
PIM2
  21c Remaining activity, percent of control [%]: 103.1%
CDK2
  21c Remaining activity, percent of control [%]: 103.0%
ERBB2
  21c Remaining activity, percent of control [%]: 94.1%
